Measured values published in ChEMBL document CHEMBL5634125, “Investigation of novel 5'-amino adenosine derivatives with potential anti-Zika virus activity” (Eur J Med Chem, 2023).
pIC50: −log10 of the molar value. Blank lines part the entries; values can stand above or below the compound they belong to. The source made the active and inactive calls. The rule behind the calls is not given here.

Legend:
[1] = system: Zika virus; test: Antiviral activity against Zika virus infected in golden hamster BHK cells assessed as inhibition of virus induced cytopathic effect incubated for 6 to 8 days by CellTiter-Glo luminescent cell viability assay; assay type: functional, organism-based
[2] = system: Zika virus; test: Inhibition of Zika virus NS5 MTase activity at 50 uM by chemiluminescence-based enzymatic assay system relative to control
[3] = Cmax in ICR mouse at 25 mg/kg, po administered as single dose and measured upto 24 hrs by LC-MS/MS analysis; assay type: ADME, organism-based; conditions: in vivo
[4] = Tmax in ICR mouse at 25 mg/kg, po administered as single dose and measured upto 24 hrs by LC-MS/MS analysis; assay type: ADME, organism-based; conditions: in vivo
[5] = Acute toxicity in po dosed ICR mouse assessed as lethal dose measured after 2 weeks; assay type: organism-based; conditions: in vivo
[6] = Acute toxicity in A129 mouse assessed as animal death at 100 mg/kg, po measured after 2 weeks; assay type: organism-based; conditions: in vivo, 336 h
[7] = Acute toxicity in A129 mouse assessed as animal death at 50 mg/kg, po measured after 2 weeks; assay type: organism-based; conditions: in vivo, 336 h
[8] = Half-life in ICR mouse at 25 mg/kg, po administered as single dose and measured upto 24 hrs by LC-MS/MS analysis; assay type: ADME, organism-based; conditions: in vivo
[9] = MRT in ICR mouse at 25 mg/kg, po administered as single dose and measured upto 24 hrs by LC-MS/MS analysis; assay type: ADME, organism-based; conditions: in vivo
[10] = AUC (0 to t) in ICR mouse at 25 mg/kg, po administered as single dose and measured upto 24 hrs by LC-MS/MS analysis; assay type: ADME, organism-based; conditions: in vivo
[11] = system: Zika virus; test: Antiviral activity against Zika virus infected in golden hamster BHK cells assessed as inhibition of viral RNA production at stage IV pre-infected with virus for 2 hrs followed by compound addition and measured 24 hrs post infection by qRT-PCR analysis; assay type: functional, organism-based; conditions: time 22.0 hrs
[12] = system: Zika virus; test: Antiviral activity against Zika virus infected in infected in golden hamster BHK cells assessed as inhibition of viral RNA production at stage III incubated for 24 hrs by qRT-PCR analysis; assay type: functional, organism-based
[13] = system: Zika virus; test: Antiviral activity against Zika virus infected in golden hamster BHK-21 cells assessed as inhibition of viral replication incubated for 72 hrs by Dual-luciferase reporter assay system; assay type: functional, organism-based; conditions: BHK-21, 72 h

Structure (SMILES): O[C@@H]1[C@H](O)[C@@H](CNCc2cccc(F)c2)O[C@H]1n1cnc2c(NCc3cccc(Cl)c3)ncnc21
pIC50 [1]: 5.24

Structure (SMILES): CC(C)NC[C@H]1O[C@@H](n2cnc3c(NCc4cccc(Cl)c4)ncnc32)[C@H](O)[C@@H]1O
pIC50 [1]: 5.20

Structure (SMILES): Oc1ccc(CNC[C@H]2O[C@@H](n3cnc4c(NCc5cccc(Cl)c5)ncnc43)[C@H](O)[C@@H]2O)cc1
pIC50 [1]: 4.59

Structure (SMILES): O[C@@H]1[C@H](O)[C@@H](CN2CCC3(CCNCC3)CC2)O[C@H]1n1cnc2c(NCc3cccc(Cl)c3)ncnc21
pIC50 [1]: < 4.30

Structure (SMILES): O[C@@H]1[C@H](O)[C@@H](CNCc2ccc(C(F)(F)F)cc2)O[C@H]1n1cnc2c(NCC3CCCCC3)ncnc21
pIC50 [1]: < 4.30

Structure (SMILES): CC1CCN(C[C@H]2O[C@@H](n3cnc4c(NCc5cccc(Cl)c5)ncnc43)[C@H](O)[C@@H]2O)CC1
pIC50 [1]: 5.18

Structure (SMILES): CNc1ncnc2c1ncn2[C@@H]1O[C@H](CNCc2ccc(C(F)(F)F)cc2)[C@@H](O)[C@H]1O
pIC50 [1]: < 4.30

Structure (SMILES): O[C@@H]1[C@H](O)[C@@H](CNC2CCCCC2)O[C@H]1n1cnc2c(NCc3cccc(Cl)c3)ncnc21
pIC50 [1]: 5.28

Structure (SMILES): COc1ccc(CNC[C@H]2O[C@@H](n3cnc4c(NCc5cccc(Cl)c5)ncnc43)[C@H](O)[C@@H]2O)cc1
pIC50 [1]: 5.30

Structure (SMILES): CCOC(=O)C1CCN(C[C@H]2O[C@@H](n3cnc4c(NCc5cccc(Cl)c5)ncnc43)[C@H](O)[C@@H]2O)CC1
pIC50 [1]: 4.57

Structure (SMILES): O[C@@H]1[C@H](O)[C@@H](CNCc2ccc(C(F)(F)F)cc2)O[C@H]1n1cnc2c(NCc3cccs3)ncnc21
pIC50 [1]: < 4.30

Structure (SMILES): O=C(NC[C@H]1O[C@@H](n2cnc3c(NCc4cccc(Cl)c4)ncnc32)[C@H](O)[C@@H]1O)c1ccc(F)cc1
pIC50 [1]: < 4.30

Structure (SMILES): CCN(C)c1ncnc2c1ncn2[C@@H]1O[C@H](CNCc2ccc(C(F)(F)F)cc2)[C@@H](O)[C@H]1O
pIC50 [1]: 4.60

Structure (SMILES): CN(Cc1ccc(F)cc1)C[C@H]1O[C@@H](n2cnc3c(NCc4cccc(Cl)c4)ncnc32)[C@H](O)[C@@H]1O
pIC50 [1]: 5.24

Structure (SMILES): O=[N+]([O-])c1ccc(CNC[C@H]2O[C@@H](n3cnc4c(NCc5cccc(Cl)c5)ncnc43)[C@H](O)[C@@H]2O)cc1
pIC50 [1]: 5.12

inhibition [2]: 67.5%
Structure (SMILES): Nc1ncnc2c1ncn2[C@@H]1O[C@H](C[C@@H](N)CC[C@H](N)C(=O)O)[C@@H](O)[C@H]1O

Structure (SMILES): O[C@@H]1[C@H](O)[C@@H](CNCc2cccs2)O[C@H]1n1cnc2c(NCc3cccc(Cl)c3)ncnc21
pIC50 [1]: 5.22

Structure (SMILES): O[C@@H]1[C@H](O)[C@@H](CNCc2ccc(C(F)(F)F)cc2)O[C@H]1n1cnc2c(NCc3ccccc3Cl)ncnc21
pIC50 [1]: < 4.30

Structure (SMILES): Nc1ncnc2c1ncn2[C@@H]1O[C@H](CNCc2ccc(C(F)(F)F)cc2)[C@@H](O)[C@H]1O
pIC50 [1]: < 4.30

Structure (SMILES): O[C@@H]1[C@H](O)[C@@H](CNC2CCCC2)O[C@H]1n1cnc2c(NCc3cccc(Cl)c3)ncnc21
pIC50 [1]: 5.07

Structure (SMILES): CC1CCCN(C[C@H]2O[C@@H](n3cnc4c(NCc5cccc(Cl)c5)ncnc43)[C@H](O)[C@@H]2O)C1 (some centres undefined)
Cmax [3]: 837 ng/mL | Tmax [4]: 0.5 h | LD50 at 336 h [5]: > 200 mg/kg | Activity [6]: Non-Toxic | Activity [7]: Non-Toxic | half-life [8]: 3.56 h | MRT [9]: 3.95 h | AUC(0-t) at 24 h [10]: 2910 ng·h/mL | pIC50 [1]: 5.85

Structure (SMILES): O[C@@H]1[C@H](O)[C@@H](CNCc2ccc(C(F)(F)F)cc2)O[C@H]1n1cnc2c(NCc3ccc(Cl)cc3)ncnc21
pIC50 [1]: < 4.30

Structure (SMILES): O[C@@H]1[C@H](O)[C@@H](CNC2CCC2)O[C@H]1n1cnc2c(NCc3cccc(Cl)c3)ncnc21
pIC50 [1]: 5.14

Structure (SMILES): O[C@@H]1[C@H](O)[C@@H](CNCc2ccc(C(F)(F)F)cc2)O[C@H]1n1cnc2c(NCc3ccco3)ncnc21
pIC50 [1]: 4.88

Structure (SMILES): O[C@@H]1[C@H](O)[C@@H](CNCc2ccccc2)O[C@H]1n1cnc2c(NCc3cccc(Cl)c3)ncnc21
pIC50 [1]: 5.34

Structure (SMILES): O[C@@H]1[C@H](O)[C@@H](CNCc2cccc3ccccc23)O[C@H]1n1cnc2c(NCc3cccc(Cl)c3)ncnc21
pIC50 [1]: 5.45

Structure (SMILES): O[C@@H]1[C@H](O)[C@@H](CNCc2ccc(C(F)(F)F)cc2)O[C@H]1n1cnc2c(NCc3cccc(C(F)(F)F)c3)ncnc21
pIC50 [1]: < 4.30

Structure (SMILES): O[C@@H]1[C@H](O)[C@@H](CN2CCOCC2)O[C@H]1n1cnc2c(NCc3cccc(Cl)c3)ncnc21
pIC50 [1]: < 4.30

Structure (SMILES): CCN(CC)C[C@H]1O[C@@H](n2cnc3c(NCc4cccc(Cl)c4)ncnc32)[C@H](O)[C@@H]1O
pIC50 [1]: 5.07

Structure (SMILES): OC1CCN(C[C@H]2O[C@@H](n3cnc4c(NCc5cccc(Cl)c5)ncnc43)[C@H](O)[C@@H]2O)CC1
pIC50 [1]: < 4.30

Structure (SMILES): O[C@@H]1[C@H](O)[C@@H](CNCc2ccc3ccccc3c2)O[C@H]1n1cnc2c(NCc3cccc(Cl)c3)ncnc21
pIC50 [1]: 5.84

Structure (SMILES): O[C@@H]1[C@H](O)[C@@H](CNCc2ccc(F)cc2)O[C@H]1n1cnc2c(NCc3cccc(Cl)c3)ncnc21
pIC50 [1]: 5.47

Structure (SMILES): CC(C)N1CCN(C[C@H]2O[C@@H](n3cnc4c(NCc5cccc(Cl)c5)ncnc43)[C@H](O)[C@@H]2O)CC1
pIC50 [1]: < 4.30

Structure (SMILES): N#Cc1cccc(CNc2ncnc3c2ncn3[C@@H]2O[C@H](CNCc3ccc(C(F)(F)F)cc3)[C@@H](O)[C@H]2O)c1
pIC50 [1]: < 4.30

Structure (SMILES): COc1cccc(CNc2ncnc3c2ncn3[C@@H]2O[C@H](CNCc3ccc(C(F)(F)F)cc3)[C@@H](O)[C@H]2O)c1
pIC50 [1]: 5.12

Structure (SMILES): O[C@@H]1[C@H](O)[C@@H](CNCc2ccc(Br)cc2)O[C@H]1n1cnc2c(NCc3cccc(Cl)c3)ncnc21
pIC50 [1]: 5.66

Structure (SMILES): Cc1cccc(CNc2ncnc3c2ncn3[C@@H]2O[C@H](CNCc3ccc(C(F)(F)F)cc3)[C@@H](O)[C@H]2O)c1
pIC50 [1]: 5.26

Structure (SMILES): C#C[C@@]1(O)[C@H](O)[C@@H](CO)O[C@H]1n1ccc2c(N)ncnc21
Activity [11]: Active | Activity [12]: Active | pIC50 [1]: 6.07

Structure (SMILES): O[C@@H]1[C@H](O)[C@@H](CN2CCCCC2)O[C@H]1n1cnc2c(NCc3cccc(Cl)c3)ncnc21
pIC50 [1]: < 4.30

Structure (SMILES): O[C@@H]1[C@H](O)[C@@H](CNCc2ccc(Cl)cc2)O[C@H]1n1cnc2c(NCc3cccc(Cl)c3)ncnc21
pIC50 [1]: 5.57

Structure (SMILES): CCN1CCN(C[C@H]2O[C@@H](n3cnc4c(NCc5cccc(Cl)c5)ncnc43)[C@H](O)[C@@H]2O)CC1
pIC50 [1]: < 4.30

Structure (SMILES): O[C@@H]1[C@H](O)[C@@H](CNCc2ccc(OC(F)(F)F)cc2)O[C@H]1n1cnc2c(NCc3cccc(Cl)c3)ncnc21
pIC50 [1]: 5.69

Structure (SMILES): CC1CCCCN1C[C@H]1O[C@@H](n2cnc3c(NCc4cccc(Cl)c4)ncnc32)[C@H](O)[C@@H]1O (some centres undefined)
pIC50 [1]: 5.25

pIC50 [13]: 5.75
Structure (SMILES): C[C@@]1(O)[C@H](O)[C@@H](CO)O[C@H]1n1cnc2c(N)ncnc21

Structure (SMILES): O[C@@H]1[C@H](O)[C@@H](CNCc2ccc(C(F)(F)F)cc2)O[C@H]1n1cnc2c(NCC3CCC3)ncnc21
pIC50 [1]: < 4.30

Structure (SMILES): CCNC[C@H]1O[C@@H](n2cnc3c(NCc4cccc(Cl)c4)ncnc32)[C@H](O)[C@@H]1O
pIC50 [1]: 4.83

Structure (SMILES): O[C@@H]1[C@H](O)[C@@H](CN2CCCC2)O[C@H]1n1cnc2c(NCc3cccc(Cl)c3)ncnc21
pIC50 [1]: 4.76

Structure (SMILES): O[C@@H]1[C@H](O)[C@@H](CNCc2ccncc2)O[C@H]1n1cnc2c(NCc3cccc(Cl)c3)ncnc21
pIC50 [1]: < 4.30

Structure (SMILES): O[C@@H]1[C@H](O)[C@@H](CNCc2ccc(C(F)(F)F)cc2)O[C@H]1n1cnc2c(NCc3cccc(F)c3)ncnc21
pIC50 [1]: 5.38
